Source: ChEMBL document CHEMBL2434921, “New synthetic aliphatic sulfonamido-quaternary ammonium salts as anticancer chemotherapeutic agents” (2013)
Calls of active or inactive are those of the source. The rule behind the calls is not given here.

Tests used:
HCT-15 [1] = assay: Growth inhibition of human HCT15 cells at 0.1 uM after 48 hrs by SRB assay; values are per cent of control; details: HCT-15, 48 h
NUGC-3 [2] = assay: Growth of human NUGC3 cells at 0.1 uM after 48 hrs by SRB assay; details: NUGC-3, 48 h
NUGC-3 [3] = assay: Growth inhibition of human NUGC3 cells at 10 uM after 48 hrs by SRB assay; values are per cent of control; details: NUGC-3, 48 h
ACHN [4] = assay: Growth inhibition of human ACHN cells at 3 uM after 48 hrs by SRB assay; values are per cent of control
NCI-H23 [5] = assay: Growth inhibition of human NCI-H23 cells at 1 uM after 48 hrs by SRB assay; values are per cent of control; details: NCI-H23, 48 h
PC-3 [6] = assay: Growth inhibition of human PC3 cells at 0.3 uM after 48 hrs by SRB assay; values are per cent of control; details: PC-3, 48 h
ACHN [7] = assay: Growth of human ACHN cells at 10 uM after 48 hrs by SRB assay
HCT-15 [8] = assay: Growth of human HCT15 cells at 0.3 uM after 48 hrs by SRB assay; details: HCT-15, 48 h
NUGC-3 [9] = assay: Growth of human NUGC3 cells at 0.3 uM after 48 hrs by SRB assay; details: NUGC-3, 48 h
PC-3 [10] = assay: Growth inhibition of human PC3 cells at 1 uM after 48 hrs by SRB assay; values are per cent of control; details: PC-3, 48 h
[11] = biological target: Rho-related GTP-binding protein RhoB (Homo sapiens) (UniProt P62745); assay: Transactivation of RhoB (unknown origin) transfected in human HeLa cells at 5 uM measured over 10 secs by dual luciferase reporter gene assay; format: cell-based
Rho-related GTP-binding protein RhoB (Homo sapiens), sequence (P62745 whole entry): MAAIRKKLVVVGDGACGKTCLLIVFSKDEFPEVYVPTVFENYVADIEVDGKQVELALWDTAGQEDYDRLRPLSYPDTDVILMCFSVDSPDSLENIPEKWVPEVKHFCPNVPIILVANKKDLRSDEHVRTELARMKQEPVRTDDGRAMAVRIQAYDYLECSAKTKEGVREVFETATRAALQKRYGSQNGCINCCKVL

MDA-MB-231 [12] = assay: Growth of human MDA-MB-231 cells at 1 uM after 48 hrs by SRB assay; details: MDA-MB-231, 48 h
NUGC-3 [13] = assay: Growth inhibition of human NUGC3 cells at 3 uM after 48 hrs by SRB assay; values are per cent of control; details: NUGC-3, 48 h
HCT-15 [14] = assay: Growth inhibition of human HCT15 cells after 48 hrs by SRB assay; format: functional; details: HCT-15, 48 h
ACHN [15] = assay: Growth inhibition of human ACHN cells at 1 uM after 48 hrs by SRB assay; values are per cent of control
ACHN [16] = assay: Growth of human ACHN cells at 0.3 uM after 48 hrs by SRB assay
PC-3 [17] = assay: Growth inhibition of human PC3 cells after 48 hrs by SRB assay; format: functional; details: PC-3, 48 h
HCT-15 [18] = assay: Growth inhibition of human HCT15 cells at 10 uM after 48 hrs by SRB assay; values are per cent of control; details: HCT-15, 48 h
MDA-MB-231 [19] = assay: Growth inhibition of human MDA-MB-231 cells at 0.3 uM after 48 hrs by SRB assay; values are per cent of control; details: MDA-MB-231, 48 h
ACHN [20] = assay: Growth of human ACHN cells at 0.1 uM after 48 hrs by SRB assay
PC-3 [21] = assay: Growth inhibition of human PC3 cells at 3 uM after 48 hrs by SRB assay; values are per cent of control; details: PC-3, 48 h
PC-3 [22] = assay: Growth inhibition of human PC3 cells at 0.1 uM after 48 hrs by SRB assay; values are per cent of control; details: PC-3, 48 h
NUGC-3 [23] = assay: Growth inhibition of human NUGC3 cells after 48 hrs by SRB assay; format: functional; details: NUGC-3, 48 h
NCI-H23 [24] = assay: Growth of human NCI-H23 cells at 0.3 uM after 48 hrs by SRB assay; details: NCI-H23, 48 h
PC-3 [25] = assay: Growth of human PC3 cells at 10 uM after 48 hrs by SRB assay; details: PC-3, 48 h
HCT-15 [26] = assay: Growth of human HCT15 cells at 3 uM after 48 hrs by SRB assay; details: HCT-15, 48 h
NUGC-3 [27] = assay: Growth of human NUGC3 cells at 1 uM after 48 hrs by SRB assay; details: NUGC-3, 48 h
NCI-H23 [28] = assay: Growth inhibition of human NCI-H23 cells at 3 uM after 48 hrs by SRB assay; values are per cent of control; details: NCI-H23, 48 h
NCI-H23 [29] = assay: Growth of human NCI-H23 cells at 10 uM after 48 hrs by SRB assay; details: NCI-H23, 48 h
ACHN [30] = assay: Growth inhibition of human ACHN cells after 48 hrs by SRB assay; format: functional
NCI-H23 [31] = assay: Growth inhibition of human NCI-H23 cells after 48 hrs by SRB assay; format: functional; details: NCI-H23, 48 h
HCT-15 [32] = assay: Growth inhibition of human HCT15 cells at 1 uM after 48 hrs by SRB assay; values are per cent of control; details: HCT-15, 48 h
MDA-MB-231 [33] = assay: Growth of human MDA-MB-231 cells at 0.1 uM after 48 hrs by SRB assay; details: MDA-MB-231, 48 h
MDA-MB-231 [34] = assay: Growth inhibition of human MDA-MB-231 cells after 48 hrs by SRB assay; format: functional; details: MDA-MB-231, 48 h
MDA-MB-231 [35] = assay: Growth of human MDA-MB-231 cells at 3 uM after 48 hrs by SRB assay; values are per cent of control; details: MDA-MB-231, 48 h
MDA-MB-231 [36] = assay: Growth of human MDA-MB-231 cells at 10 uM after 48 hrs by SRB assay; details: MDA-MB-231, 48 h
NCI-H23 [37] = assay: Growth inhibition of human NCI-H23 cells at 0.1 uM after 48 hrs by SRB assay; values are per cent of control; details: NCI-H23, 48 h

Q: Which growth, % of control at 0.1 µM (HCT-15 [1]) does the source give for `CCCCCCCCCCCCCCS(=O)(=O)N(C)CC[N+](CC)(CC)CC` here?
A: 95.3%

Q: And the growth, % of control at 0.1 µM (NUGC-3 [2])?
A: 92%

Q: And the growth, % of control at 10 µM (NUGC-3 [3])?
A: -1.3%

Q: And the growth, % of control at 3 µM (ACHN [4])?
A: 48.6%

Q: And the growth, % of control at 1 µM (NCI-H23 [5])?
A: 39.8%

Q: What about the growth, % of control at 0.3 µM (PC-3 [6]) of the same compound?
A: 102%

Q: And the growth, % of control at 10 µM (ACHN [7])?
A: 21.2%

Q: And the growth, % of control at 0.3 µM (HCT-15 [8])?
A: 96.6%

Q: What about the growth, % of control at 0.3 µM (NUGC-3 [9]) of the same compound?
A: 83.8%

Q: What about the growth, % of control at 1 µM (PC-3 [10]) of the same compound?
A: 41.4%

Q: And the Activity [11]?
A: Active

Q: And the growth, % of control at 1 µM (MDA-MB-231 [12])?
A: 54.2%

Q: And the growth, % of control at 3 µM (NUGC-3 [13])?
A: 7.9%

Q: And the GI50 (HCT-15 [14])?
A: 3460 nM

Q: What about the growth, % of control at 1 µM (ACHN [15]) of the same compound?
A: 68.7%

Q: And the growth, % of control at 0.3 µM (ACHN [16])?
A: 94.5%

Q: What about the GI50 (PC-3 [17]) of the same compound?
A: 520 nM

Q: And the growth, % of control at 10 µM (HCT-15 [18])?
A: 36%

Q: And the growth, % of control at 0.3 µM (MDA-MB-231 [19])?
A: 95.3%

Q: What about the growth, % of control at 0.1 µM (ACHN [20]) of the same compound?
A: 96.4%

Q: What about the growth, % of control at 3 µM (PC-3 [21]) of the same compound?
A: 0.9%

Q: What about the growth, % of control at 0.1 µM (PC-3 [22]) of the same compound?
A: 103%

Q: What about the GI50 (NUGC-3 [23]) of the same compound?
A: 320 nM

Q: And the growth, % of control at 0.3 µM (NCI-H23 [24])?
A: 90.1%

Q: And the growth, % of control at 10 µM (PC-3 [25])?
A: -11.5%

Q: And the growth, % of control at 3 µM (HCT-15 [26])?
A: 72.5%

Q: What about the growth, % of control at 1 µM (NUGC-3 [27]) of the same compound?
A: 20.9%

Q: What about the growth, % of control at 3 µM (NCI-H23 [28]) of the same compound?
A: 15%

Q: What about the growth, % of control at 10 µM (NCI-H23 [29]) of the same compound?
A: -5.6%

Q: And the GI50 (ACHN [30])?
A: 1460 nM

Q: What about the GI50 (NCI-H23 [31]) of the same compound?
A: 470 nM

Q: What about the growth, % of control at 1 µM (HCT-15 [32]) of the same compound?
A: 87.1%

Q: What about the growth, % of control at 0.1 µM (MDA-MB-231 [33]) of the same compound?
A: 96.4%

Q: And the GI50 (MDA-MB-231 [34])?
A: 870 nM

Q: What about the growth, % of control at 3 µM (MDA-MB-231 [35]) of the same compound?
A: 34.1%

Q: What about the growth, % of control at 10 µM (MDA-MB-231 [36]) of the same compound?
A: 17.2%

Q: What about the growth, % of control at 0.1 µM (NCI-H23 [37]) of the same compound?
A: 97.3%

Q: With `CCCCCCCCCCCCCCCCS(=O)(=O)N(C)CCC[N+](C)(C)CC` as the compound, how does the growth, % of control at 0.1 µM (HCT-15 [1]) read?
A: 85.4%

Q: And the growth, % of control at 0.1 µM (NUGC-3 [2])?
A: 76.9%

Q: And the growth, % of control at 10 µM (NUGC-3 [3])?
A: -27.9%

Q: And the growth, % of control at 3 µM (ACHN [4])?
A: 35.6%

Q: And the growth, % of control at 1 µM (NCI-H23 [5])?
A: 58.8%

Q: What about the growth, % of control at 0.3 µM (PC-3 [6]) of the same compound?
A: 88.2%

Q: And the growth, % of control at 10 µM (ACHN [7])?
A: 1.6%

Q: What about the growth, % of control at 0.3 µM (HCT-15 [8]) of the same compound?
A: 87.4%

Q: And the growth, % of control at 0.3 µM (NUGC-3 [9])?
A: 63.4%

Q: What about the growth, % of control at 1 µM (PC-3 [10]) of the same compound?
A: 25%

Q: What about the Activity [11] of the same compound?
A: Active

Q: What about the growth, % of control at 1 µM (MDA-MB-231 [12]) of the same compound?
A: 54.4%

Q: And the growth, % of control at 3 µM (NUGC-3 [13])?
A: -14.1%

Q: And the GI50 (HCT-15 [14])?
A: 780 nM

Q: And the growth, % of control at 1 µM (ACHN [15])?
A: 64.5%

Q: And the growth, % of control at 0.3 µM (ACHN [16])?
A: 92.1%

Q: What about the GI50 (PC-3 [17]) of the same compound?
A: 360 nM

Q: What about the growth, % of control at 10 µM (HCT-15 [18]) of the same compound?
A: 15.7%

Q: What about the growth, % of control at 0.3 µM (MDA-MB-231 [19]) of the same compound?
A: 89.2%

Q: What about the growth, % of control at 0.1 µM (ACHN [20]) of the same compound?
A: 102%

Q: What about the growth, % of control at 3 µM (PC-3 [21]) of the same compound?
A: -17.9%

Q: And the growth, % of control at 0.1 µM (PC-3 [22])?
A: 91.6%

Q: And the GI50 (NUGC-3 [23])?
A: 200 nM

Q: What about the growth, % of control at 0.3 µM (NCI-H23 [24]) of the same compound?
A: 73.1%

Q: And the growth, % of control at 10 µM (PC-3 [25])?
A: -28.9%

Q: And the growth, % of control at 3 µM (HCT-15 [26])?
A: 30.5%

Q: And the growth, % of control at 1 µM (NUGC-3 [27])?
A: 16.9%

Q: And the growth, % of control at 3 µM (NCI-H23 [28])?
A: 14.8%

Q: What about the growth, % of control at 10 µM (NCI-H23 [29]) of the same compound?
A: -22.7%

Q: What about the GI50 (ACHN [30]) of the same compound?
A: 950 nM

Q: And the GI50 (NCI-H23 [31])?
A: 430 nM

Q: And the growth, % of control at 1 µM (HCT-15 [32])?
A: 56.5%

Q: What about the growth, % of control at 0.1 µM (MDA-MB-231 [33]) of the same compound?
A: 94.8%

Q: What about the GI50 (MDA-MB-231 [34]) of the same compound?
A: 690 nM

Q: What about the growth, % of control at 3 µM (MDA-MB-231 [35]) of the same compound?
A: 27.3%

Q: What about the growth, % of control at 10 µM (MDA-MB-231 [36]) of the same compound?
A: 0%

Q: What about the growth, % of control at 0.1 µM (NCI-H23 [37]) of the same compound?
A: 70.4%
